Values after ≈ are worked out from the molar mass of the structure shown. Values joined by “and” are separate entries in the source; they are usually repeats but may differ in a detail not shown here. Identical values can stand only once. Like-named read-outs stand apart in the source and are kept apart here. Non-standard residues stand in square brackets, D forms with d. Residues, ends and D or L forms follow the SMILES beside them. Phe(βS-OH) = N[C@H](C(=O)O)[C@@H](O)c1ccccc1; NMeH = CN[C@@H](Cc1c[nH]cn1)C(=O)O; Hyp = O=C(O)[C@@H]1C[C@@H](O)CN1; NMeF = CN[C@@H](Cc1ccccc1)C(=O)O; NMeL = CN[C@@H](CC(C)C)C(=O)O; Dap = NC[C@H](N)C(=O)O; Sar = CNCC(=O)O
Tests used:
E. faecalis OG1RF = assay: effect on microbial growth (MIC); assay type: cell-based
S. epidermidis = assay: effect on microbial growth (MIC); assay type: cell-based
S. cerevisiae = assay: effect on microbial growth (MIC)
S. pombe = assay: effect on microbial growth (MIC)
E. coli K12 = assay: effect on microbial growth (MIC)
[1] = system: colon cancer cell line HCT116; assay: anticancer assay, growth inhibition, dose-response; assay type: cell-based
B. subtilis 168 = assay: effect on microbial growth (MIC)
V. cholerae = assay: effect on microbial growth (MIC)
[2] = system: breast cancer cell line MDA-MB-231; assay: anticancer assay, growth inhibition, dose-response; assay type: cell-based
M. luteus = assay: effect on microbial growth (MIC); assay type: cell-based
P. aeruginosa PAO1 = assay: effect on microbial growth (MIC); assay type: cell-based
B. subtilis 3610 = assay: effect on microbial growth (MIC); assay type: cell-based
S. aureus Newman = assay: effect on microbial growth (MIC); assay type: cell-based
S. rimosus Δrim::aprR = assay: antimicrobial activity, cell viability (wet pellet weight) relative to DMSO; assay type: cell-based; conditions: Streptomyces rimosus, 120 h, read-out: half-maximal inhibitory concentration (IC50)
Procedure: (§1) Separately, small-scale fermentation of S. rimosus Δrim::apr^R was performed as described above with the following concentrations of phytosphingosine: 0, 1.25, 2.5, 5, 10, 20, 40, 80, 160 μM. After 5 d, cells were collected by centrifugation (4000 g, 1 h) and the wet weight of pellets were measured.
Cell viability relative to DMSO-treated samples were graphed and fit to a dose-response curve in Prism 9 to obtain the IC50 value. In addition, culture supernatants were processed via SPE as described above and samples were subjected to HR-HPLC-MS analysis. The extracted ion chromatograms of momomycin were integrated and the data were graphed to represent the induction effect of phytosphingosine on momomycin production at different concentrations. All data points were taken from biological duplicates.

[3] = system: momomycin production in S. rimosus Δrim::aprR; assay: induction of momomycin production (HR-HPLC-MS extracted ion chromatograms); assay type: cell-based; conditions: Streptomyces rimosus, 120 h, read-out: half-maximal elicitor concentration (EC50)
Procedure: A seed culture of S. rimosus Δrim::apr^R was inoculated in TSBY medium as described above, which was used to start fermentation cultures in 125 mL Erlenmeyer flasks with the final concentration of cells of 0.05% (w/v). Each flask contained 25 mL R4 medium, supplemented with various concentrations of elicitors or equal volumes of DMSO as control. After 5 d of cultivation at 30° C./250 rpm, the cultures were spun down and processed by solid phase extraction (SPE). Specifically, 5 mL of supernatant was filtered and loaded onto STRATA® C18-E column (Phenomenex, 55 μm, 70 Å, 50 mg), which had been activated with MeOH and equilibrated with H2O. The column was washed with 1 mL H2O and eluted by 1 mL MeOH. The samples in MeOH were dried in vacuo, resuspended in 50 μL MeCN in H2O, and subjected to HR-HPLC-MS analysis.
as §1
Cell viability relative to DMSO-treated samples were graphed and fit to a dose-response curve in Prism 9 to obtain the IC50 value. In addition, culture supernatants were processed via SPE as described above and samples were subjected to HR-HPLC-MS analysis. […]

Row | Compound | minimum inhibitory concentration (MIC) (E. faecalis OG1RF) | minimum inhibitory concentration (MIC) (S. epidermidis) | minimum inhibitory concentration (MIC) (S. cerevisiae) | minimum inhibitory concentration (MIC) (S. pombe) | minimum inhibitory concentration (MIC) (E. coli K12) | IC50 ([1]; colorectal carcinoma / colon cancer cell line HCT116, FIG. 2A, read-out: IC50) | IC50 ([1]; colorectal carcinoma HCT116, dose-response curve FIG. 2A) | minimum inhibitory concentration (MIC) (B. subtilis 168) | minimum inhibitory concentration (MIC) (V. cholerae) | IC50 ([2]; adenocarcinoma MDA-MB-231, FIG. 2B, read-out: IC50) | IC50 ([2]; adenocarcinoma MDA-MB-231, dose-response curve FIG. 2B) | minimum inhibitory concentration (MIC) (M. luteus) | minimum inhibitory concentration (MIC) (P. aeruginosa PAO1) | minimum inhibitory concentration (MIC) (B. subtilis 3610) | minimum inhibitory concentration (MIC) (S. aureus Newman) | IC50 (S. rimosus Δrim::aprR) | EC50 [3]
1 | CC(C)C[C@H]1C(=O)N(C)[C@@H](Cc2ccccc2)C(=O)N[C@@H](Cc2ccc(O)cc2)C(=O)N[C@@H]([C@@H](O)c2ccccc2)C(=O)N[C@@H](CC(=O)O)C(=O)N(C)CC(=O)N[C@@H](CN)C(=O)N2C[C@H](O)C[C@H]2C(=O)N[C@@H](CN)C(=O)N(C)[C@@H](Cc2ccccc2)C(=O)N(C)[C@@H](Cc2cnc[nH]2)C(=O)N1C [momomycin] (cyclo(D[Sar][Dap][Hyp][Dap][NMeF][NMeH][NMeL][NMeF]Y[Phe(βS-OH)])) | above 64 μg/mL | above 64 μg/mL | above 64 μg/mL | above 64 μg/mL | above 64 μg/mL | 1.1 µM and ~1.1 µM | 1.5 mg/L | above 64 μg/mL | above 64 μg/mL | 1.2 µM | 1.7 mg/L | 64 mg/L (≈ 45.8 µM) | above 64 μg/mL | above 64 μg/mL | above 64 μg/mL | – | –
2 | CCCCCCCCCCCCCC[C@@H](O)[C@@H](O)[C@@H](N)CO [phytosphingosine] | – | – | – | – | – | – | – | – | – | – | – | – | – | – | – | 37.8 µM | 16.9 µM
